# Measurements published in US20230295142A1, “NOVEL COMPOUNDS AS HISTONE DEACETYLASE 6 INHIBITOR, AND PHARMACEUTICAL COMPOSITION COMPRISING THE SAME” (CHONG KUN DANG PHARMACEUTICAL CORP., priority 2020, published 2023).
# Assays:
# [1] = target: HDAC6 human recombinant (Homo sapiens (Human), UniProt Q9UBN7); assay: HDAC6 enzyme activity inhibition (fluorimetric, in vitro); type: biochemical; details: samples at 0.1, 1, 10, 100 and 1000 nM; 37° C. 60 minutes
# Experimental: (§1) A HDAC enzyme inhibitory capacity of a test material was measured by using HDAC1 Fluorimetric Drug Discovery Assay Kit (Enzolifesciences: BML-AK511) and HDAC6 human recombinant (Calbiochem: 382180). For a HDAC1 assay, samples were treated at a concentration of 100, 1000 and 10000 nM. For a HDAC6 assay, samples were treated at a concentration of 0.1, 1, 10, 100 and 1000 nM. After the above sample treatment, a reaction was continued at 37° C. for 60 minutes, treated with a developer, and subjected to reaction at 37° C. for 30 minutes, after which fluorescence intensity (Ex 390, Em 460) was measured by using FlexStatin3 (Molecular device).
# [2] = target: HDAC1 (Homo sapiens (Human), UniProt Q13547); assay: HDAC1 enzyme activity inhibition (HDAC1 Fluorimetric Drug Discovery Assay Kit); type: biochemical; details: samples at 100, 1000 and 10000 nM; 37° C. 60 minutes
# HDAC1, sequence (Q13547 whole entry): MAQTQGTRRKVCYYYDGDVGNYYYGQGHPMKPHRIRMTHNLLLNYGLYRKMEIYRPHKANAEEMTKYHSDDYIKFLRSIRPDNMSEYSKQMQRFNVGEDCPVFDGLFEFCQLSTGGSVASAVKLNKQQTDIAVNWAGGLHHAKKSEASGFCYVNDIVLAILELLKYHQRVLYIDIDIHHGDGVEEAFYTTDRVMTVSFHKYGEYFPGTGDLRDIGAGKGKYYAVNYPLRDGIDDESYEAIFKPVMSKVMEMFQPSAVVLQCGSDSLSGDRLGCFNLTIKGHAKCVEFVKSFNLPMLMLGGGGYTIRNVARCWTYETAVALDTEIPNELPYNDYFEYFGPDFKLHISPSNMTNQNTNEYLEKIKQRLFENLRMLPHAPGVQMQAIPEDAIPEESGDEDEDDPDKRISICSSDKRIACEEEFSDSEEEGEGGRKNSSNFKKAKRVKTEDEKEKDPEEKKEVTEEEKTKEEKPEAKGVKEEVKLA
# Experimental: as §1
# HDAC6 human recombinant, sequence (Q9UBN7 whole entry): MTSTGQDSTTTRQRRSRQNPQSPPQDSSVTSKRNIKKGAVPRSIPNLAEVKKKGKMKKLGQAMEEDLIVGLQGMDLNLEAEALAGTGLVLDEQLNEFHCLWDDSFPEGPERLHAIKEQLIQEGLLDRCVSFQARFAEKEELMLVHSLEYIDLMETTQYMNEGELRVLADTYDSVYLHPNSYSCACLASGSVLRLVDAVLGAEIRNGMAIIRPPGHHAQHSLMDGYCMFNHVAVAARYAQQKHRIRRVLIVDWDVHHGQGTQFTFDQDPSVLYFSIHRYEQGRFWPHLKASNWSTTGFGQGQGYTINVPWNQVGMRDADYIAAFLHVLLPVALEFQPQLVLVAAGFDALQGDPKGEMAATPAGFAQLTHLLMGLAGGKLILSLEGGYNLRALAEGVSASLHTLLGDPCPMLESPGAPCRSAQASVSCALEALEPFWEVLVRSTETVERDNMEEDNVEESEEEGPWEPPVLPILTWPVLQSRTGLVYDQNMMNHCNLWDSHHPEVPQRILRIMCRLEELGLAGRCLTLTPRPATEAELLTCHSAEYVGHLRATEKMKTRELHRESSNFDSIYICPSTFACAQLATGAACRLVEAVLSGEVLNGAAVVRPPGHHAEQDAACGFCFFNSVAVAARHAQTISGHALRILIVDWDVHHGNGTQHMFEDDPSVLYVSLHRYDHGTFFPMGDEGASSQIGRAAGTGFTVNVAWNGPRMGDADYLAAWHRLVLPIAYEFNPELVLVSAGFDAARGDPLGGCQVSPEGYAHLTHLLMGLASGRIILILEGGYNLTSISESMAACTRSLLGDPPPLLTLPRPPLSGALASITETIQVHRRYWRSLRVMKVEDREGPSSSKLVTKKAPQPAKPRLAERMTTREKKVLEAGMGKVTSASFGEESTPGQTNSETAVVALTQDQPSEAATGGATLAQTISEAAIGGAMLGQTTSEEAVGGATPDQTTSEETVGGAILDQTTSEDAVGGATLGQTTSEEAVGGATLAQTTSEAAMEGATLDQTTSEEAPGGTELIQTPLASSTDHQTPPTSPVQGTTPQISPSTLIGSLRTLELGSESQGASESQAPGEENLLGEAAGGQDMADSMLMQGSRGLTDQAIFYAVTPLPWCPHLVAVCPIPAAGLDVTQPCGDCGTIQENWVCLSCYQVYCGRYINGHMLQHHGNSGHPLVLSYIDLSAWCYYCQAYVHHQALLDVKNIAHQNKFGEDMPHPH
SMILES,IC50 [1] [nM],IC50 [2] [nM]
"CC1(C)C(=O)N(Cc2ccc(-c3nnc(C(F)F)o3)cn2)C(=O)N1c1ccc(-c2ccncc2)cc1 [Compound 26, 3-((5-(5-(difluoromethyl)-1,3,4-oxadiazol-2-yl)pyridin-2-yl)methyl)-5,5-dimethyl-1-(4-(pyridin-4-yl)phenyl)imidazolidin-2,4-dione]",48,> 10000
"CC1(C)C(=O)N(Cc2ccc(-c3nnc(C(F)F)o3)cn2)C(=O)N1c1cccc(N)c1 [Compound 35, 1-(3-aminophenyl)-3-((5-(5-(difluoromethyl)-1,3,4-oxadiazol-2-yl)pyridin-2-yl)methyl)-5,5-dimethylimidazolidin-2,4-dione]",52,> 10000
"CC(C)(C)OC(=O)n1ccc2c(N3C(=O)N(Cc4ccc(-c5nnc(C(F)F)o5)cn4)C(=O)C3(C)C)cccc21 [Compound 30, tert-butyl 4-(3-((5-(5-(difluoromethyl)-1,3,4-oxadiazol-2-yl)pyridin-2-yl)methyl)-5,5-dimethyl-2,4-dioxoimidazolidin-1-yl)-1H-indol-1-carboxylate]",578,> 10000
"CC1(C)C(=O)N(Cc2ccc(-c3nnc(C(F)F)o3)cn2)C(=O)N1c1ccc(F)c(F)c1 [Compound 16, 3-((5-(5-(difluoromethyl)-1,3,4-oxadiazol-2-yl)pyridin-2-yl)methyl)-1-(3,4-difluorophenyl)-5,5-dimethylimidazolidin-2,4-dione]",142,> 10000
"CN1CC2(C1)C(=O)N(Cc1ccc(-c3nnc(C(F)F)o3)cn1)C(=O)N2c1ccccc1 [Compound 21, 7-((5-(5-(difluoromethyl)-1,3,4-oxadiazol-2-yl)pyridin-2-yl)methyl)-2-methyl-5-phenyl-2,5,7-triazaspiro[3.4]octan-6,8-dione]",241,> 10000
"CN1CCC(c2cccc(N3C(=O)N(Cc4ccc(-c5nnc(C(F)F)o5)cn4)C(=O)C3(C)C)c2)CC1 [Compound 20, 3-((5-(5-(difluoromethyl)-1,3,4-oxadiazol-2-yl)pyridin-2-yl)methyl)-5,5-dimethyl-1-(3-(1-methylpiperidin-4-yl)phenyl)imidazolidin-2,4-dione]",90,> 10000
"CC1(C)C(=O)N(c2ccccc2)C(=O)N1Cc1ccc(-c2nnc(C(F)(F)F)o2)cc1F [Compound 2, 1-(2-fluoro-4-(5-(trifluoromethyl)-1,3,4-oxadiazol-2-yl)benzyl)-5,5-dimethyl-3-phenylimidazolidin-2,4-dione]",958,> 10000
"CC1(C)C(=O)N(Cc2ccc(-c3nnc(C(F)F)o3)cn2)C(=O)N1c1cccc(F)c1 [Compound 10, 3-((5-(5-(difluoromethyl)-1,3,4-oxadiazol-2-yl)pyridin-2-yl)methyl)-1-(3-fluorophenyl)-5,5-dimethylimidazolidin-2,4-dione]",53,> 10000
"O=C1N(Cc2ccc(-c3nnc(C(F)F)o3)cn2)C(=O)C2(CCN(C3COC3)CC2)N1c1cccc(F)c1 [Compound 7, 3-((5-(5-(difluoromethyl)-1,3,4-oxadiazol-2-yl)pyridin-2-yl)methyl)-1-(3-fluorophenyl)-8-(oxetan-3-yl)-1,3,8-triazaspiro[4.5]decan-2,4-dione]",100,> 10000
"CC1(C)C(=O)N(Cc2ccc(-c3nnc(C(F)F)o3)cn2)C(=O)N1c1ccc(-c2ccoc2)cc1 [Compound 25, 3-((5-(5-(difluoromethyl)-1,3,4-oxadiazol-2-yl)pyridin-2-yl)methyl)-1-(4-(furan-3-yl)phenyl)-5,5-dimethylimidazolidin-2,4-dione]",106,> 10000
"CC(C)(C)OC(=O)N1CCC2(CC1)C(=O)N(Cc1ccc(-c3nnc(C(F)F)o3)cn1)C(=O)N2c1cccc(F)c1 [Compound 5, tert-butyl 3-((5-(5-(difluoromethyl)-1,3,4-oxadiazol-2-yl)pyridin-2-yl)methyl)-1-(3-fluorophenyl)-2,4-dioxo-1,3,8-triazaspiro[4.5]decan-8-carboxylate]",206,> 10000
